The results in this text go back to DBAASP.

What all share (experiment): ≥ marks a high value that may be exact or a test limit, other limits are often not marked, values filed in µg/mL are converted to µM
The subject of assay [1] is Listeria monocytogenes BCRC 14845.
In assay [2] the test system is Trichomonas vaginalis ATCC 30001.
Assay [3] deals with Trichomonas vaginalis ATCC 50143.
Assay [4] relates to Trichomonas vaginalis T1.
Assay [5] deals with Vibrio alginolyticus.
Assay [6] has as its system Vibrio vulnificus BCRC 12905.
Assay [7] concerns Listeria grayi DSM 20601.
The test system of assay [8] is Lactiplantibacillus plantarum 965.
Assay [9] concerns Latilactobacillus sakei NCDO 2714.
Assay [10] deals with Candida albicans CCARM 14020.
The subject of assay [11] is Candida albicans CCARM 14021.
Assay [12] has as its system Candida albicans CCARM 14022.
For assay [13], the system named is Candida albicans SC5314.
Assay [14] relates to Escherichia coli CVCC 245.
Assay [15] relates to Escherichia coli K88.
The test system of assay [16] is Listeria monocytogenes CVCC 1599.
Assay [17] concerns Micrococcus luteus CVCC 28001.
Assay [18] concerns Staphylococcus aureus ATCC 25923.
Assay [19] concerns Staphylococcus aureus CMCC 26003.
Assay [20] has as its system Candida albicans.
Assay [21] deals with Candida glabrata.
Assay [22] has as its system Escherichia coli ATCC 25922.
Assay [23] deals with Mycobacterium tuberculosis H37Rv.
Assay [24] relates to Mycobacterium tuberculosis.
Assay [25] has as its system Pseudomonas aeruginosa ATCC 9027.
Assay [26] concerns Streptococcus agalactiae.
The test system of assay [27] is Escherichia coli DH5alpha.
Assay [28] concerns Staphylococcus xylosus.
Assay [29] concerns Bacillus subtilis 168.
In assay [30] the test system is Candida albicans F7-39/IDE99.
Assay [31] concerns Escherichia coli B.
Assay [32] concerns Micrococcus luteus CCM 144.
The subject of assay [33] is Pseudomonas aeruginosa ATCC 27853.
Assay [34] concerns Pseudomonas aeruginosa.
The test system of assay [35] is Staphylococcus aureus 1.
The test system of assay [36] is Staphylococcus aureus ATCC 43300.
Assay [37] deals with Staphylococcus aureus.
The subject of assay [38] is Staphylococcus epidermidis.

Values after ≈ are worked out from the molar mass of the structure shown.

Take `CSCC[C@H](NC(=O)[C@H](CCCN=C(N)N)NC(=O)CNC(=O)[C@H](CCCCN)NC(=O)[C@H](Cc1ccc(O)cc1)NC(=O)[C@H](Cc1ccc(O)cc1)NC(=O)[C@@H](NC(=O)[C@H](CCC(N)=O)NC(=O)[C@H](Cc1ccccc1)NC(=O)[C@H](CCCN=C(N)N)NC(=O)[C@H](CCCCN)NC(=O)[C@H](CC(C)C)NC(=O)[C@H](Cc1ccc(O)cc1)NC(=O)[C@@H]1CCCN1C(=O)[C@H](CCCCN)NC(=O)[C@@H](NC(=O)[C@@H](NC(=O)[C@H](Cc1ccccc1)NC(=O)[C@H](CCCCN)NC(=O)[C@H](CS)NC(=O)[C@H](CCC(=O)O)NC(C)=O)[C@@H](C)O)C(C)C)C(C)C)C(=O)N[C@@H](Cc1c[nH]c2ccccc12)C(=O)N[C@@H](CS)C(=O)N1CCC[C@H]1C(N)=O` [ECKFTVKPYLKRFQVYYKGRMWCP]: the MIC (as a rule, the lowest concentration found to suppress growth) is 8.14 µM (≈ 25.3 µg/mL) in [1]; ≥ 32.6 µM in [2]; 8.14 µM (≈ 25.3 µg/mL) in assay [3]; ≥ 65.1 µM in [4]; ≥ 32.6 µM in assay [5]; ≥ 32.6 µM in assay [6].
Consider `CC[C@H](C)[C@H](NC(=O)[C@H](CS)NC(=O)[C@@H](NC(=O)[C@H](CCCN=C(N)N)NC(=O)[C@H](CCCCN)NC(=O)[C@H](CC(C)C)NC(=O)[C@H](Cc1ccccc1)NC(=O)[C@H](CC(N)=O)NC(=O)CNC(=O)[C@@H](N)CS)[C@@H](C)O)C(=O)N[C@@H](CS)C(=O)N[C@H](C(=O)N[C@@H](CCCCN)C(=O)N[C@@H](CCCCN)C(=O)O)C(C)C` [CGNFLKRTCICVKK], for which the MIC in assay [7] was ≥ 60 µM.
Consider `CSCC[C@H](NC(=O)[C@H](CCC(N)=O)NC(=O)[C@H](CC(C)C)NC(=O)[C@H](CO)NC(=O)[C@@H](N)Cc1ccc(O)cc1)C(=O)O` [YSLQM], for which the results for the MIC in assay [8] and in [9] were 10 µM (≈ 6.41 µg/mL) and 1 µM (≈ 0.641 µg/mL), respectively.
Regarding `CC(C)C[C@H](NC(=O)[C@@H](N)Cc1c[nH]c2ccccc12)C(=O)N[C@@H](CC(N)=O)C(=O)N[C@@H](C)C(=O)N[C@@H](CCCCN)C(=O)N[C@@H](CCCN=C(N)N)C(=O)N[C@@H](Cc1cnc[nH]1)C(=O)N[C@@H](Cc1cnc[nH]1)C(=O)NCC(=O)N[C@@H](Cc1ccc(O)cc1)C(=O)N[C@@H](CCCCN)C(=O)N[C@@H](CCCN=C(N)N)C(=O)N[C@@H](CCCCN)C(=O)N[C@@H](Cc1ccccc1)C(=O)N[C@@H](Cc1cnc[nH]1)C(N)=O` [WLNAKRHHGYKRKFH], the minimum inhibitory concentration (MIC) in assay [10] came out at 2.86 µM (≈ 5.65 µg/mL); in assay [11], 5.72 µM (≈ 11.3 µg/mL); in [12], 16.2 µM (≈ 32 µg/mL); in assay [13], 2.86 µM (≈ 5.65 µg/mL).
Regarding `CC[C@H](C)[C@H](NC(=O)[C@H](CCCCN)NC(=O)[C@H](CCCCN)NC(=O)[C@H](Cc1ccccc1)NC(=O)[C@H](CC(C)C)NC(=O)[C@H](CCCCN)NC(=O)[C@H](Cc1c[nH]c2ccccc12)NC(=O)[C@@H](N)CCCCN)C(=O)N[C@@H](Cc1ccccc1)C(=O)N[C@@H](CCCCN)C(=O)N[C@@H](CCCN=C(N)N)C(=O)N[C@H](C(=O)N[C@H](C(=O)N[C@@H](CCC(N)=O)C(=O)N[C@@H](CCCN=C(N)N)C(=O)N[C@H](C(=O)N[C@@H](CCCCN)C(=O)N[C@@H](CC(=O)O)C(=O)N[C@@H](Cc1ccccc1)C(=O)N[C@@H](CC(C)C)C(=O)N[C@@H](CCCN=C(N)N)C(=O)N[C@@H](CC(N)=O)C(=O)O)[C@@H](C)CC)C(C)C)[C@@H](C)CC` [KWKLFKKIFKRIVQRIKDFLRN], the MIC in [14] was found to be 2.41 µM (≈ 7 µg/mL); in assay [15], 2.75 µM (≈ 8 µg/mL); in [16], 0.688 µM (≈ 2 µg/mL); in [17], 5.51 µM (≈ 16 µg/mL); in [18], 0.688 µM (≈ 2 µg/mL); in assay [19] it was 2.41 µM (≈ 7 µg/mL).
On to `CC[C@H](C)[C@H](NC(=O)[C@H](CCCCN)NC(=O)[C@H](CCCCN)NC(=O)[C@@H](NC(=O)[C@H](C)NC(=O)[C@H](CO)NC(=O)[C@@H](NC(=O)[C@H](C)NC(=O)[C@H](CO)NC(=O)[C@@H]1CCCN1C(=O)[C@@H](NC(=O)[C@H](CC(C)C)NC(=O)[C@H](CO)NC(=O)[C@H](CC(C)C)NC(=O)[C@H](CC(C)C)NC(=O)[C@H](Cc1ccccc1)NC(=O)[C@@H](N)Cc1ccccc1)[C@@H](C)CC)[C@@H](C)CC)[C@@H](C)CC)C(N)=O` [FFLLSLIPSAISAIKKI], for which the MIC is 6.25 µM (≈ 11.6 µg/mL) in assay [20]; ≥ 50 µM in assay [21]; 24 µM (≈ 44.6 µg/mL) in assay [22]; 5.4 µM (≈ 10 µg/mL) in assay [23]; 8.6 µM (≈ 16 µg/mL) in [24]; 5 µM (≈ 9.3 µg/mL) in [25]. The minimal inhibitory concentration (MIC) in assay [18] and in assay [26] was 5 µM (≈ 9.3 µg/mL) each time.
In the case of `NC(N)=NCCC[C@H](NC(=O)[C@H](CCCN=C(N)N)NC(=O)[C@H](CCCN=C(N)N)NC(=O)[C@H](Cc1ccccc1)NC(=O)[C@H](Cc1ccccc1)NC(=O)[C@H](Cc1ccccc1)NC(=O)[C@H](Cc1ccccc1)NC(=O)[C@H](Cc1ccccc1)NC(=O)[C@H](CCCN=C(N)N)NC(=O)[C@H](CCCN=C(N)N)NC(=O)[C@@H](N)CCCN=C(N)N)C(=O)O` [RRRFFFFFRRR], the values for the MIC in assay [27] and in assay [28] were 4 µM (≈ 6.76 µg/mL) and 0.5 µM (≈ 0.846 µg/mL), respectively.
In the case of `CC[C@H](C)[C@H](NC(=O)CN)C(=O)N[C@@H](CCSC)C(=O)N[C@H](C(=O)N[C@@H](CO)C(=O)N[C@@H](CC(C)C)C(=O)N[C@@H](CCSC)C(=O)N[C@@H](CCCCN)C(=O)N[C@@H](CCCCN)C(=O)N[C@@H](CC(C)C)C(=O)N[C@@H](C)C(=O)N[C@@H](C)C(=O)N[C@@H](Cc1cnc[nH]1)C(=O)N[C@H](C(=O)N[C@@H](C)C(=O)N[C@@H](CCCCN)C(N)=O)[C@@H](C)CC)[C@@H](C)CC` [GIMISLMKKLAAHIAK], the MIC in assay [29] is 7 µM (≈ 12.1 µg/mL); in assay [30] it was 12 µM (≈ 20.7 µg/mL); in assay [31] it was 12 µM (≈ 20.7 µg/mL); in assay [32], 3 µM (≈ 5.17 µg/mL); in assay [33] it was 47 µM (≈ 81 µg/mL); in assay [34], > 100 µM. Further, the minimum inhibitory concentration (MIC) is ≥ 35 µM in assay [35], 43 µM (≈ 74.1 µg/mL) in assay [36], 65 µM (≈ 112 µg/mL) in assay [37] and 8.8 µM (≈ 15.2 µg/mL) in assay [38].
